Our source for the TGI and GI50 values is PubChem BioAssay (NCI).

Some test systems named below: MDA-MB-435; T-47D breast; KM12 colon; SK-OV-3 ovarian; HCC-2998 colon; HCT-15 colon; MDA-MB-231 breast; A549 NSCLC; SNB-19 CNS; MALME-3M melanoma.
Test in all cases: NCI tumour cell line growth inhibition, 48 h

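Briefly, cells in 96-well plates were exposed to five compound concentrations for 48 h, and endpoints were estimated by linear interpolation. GI50 = concentration required for 50% inhibition of growth. At the TGI there is no net growth.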

Regarding `Clc1ccc(-c2cn3c(nc4ccccc43)c(/C=C/c3ccco3)n2)cc1`, the TGI with MDA-MB-435, with T-47D breast, in the assay on KM12 colon, in the assay with SK-OV-3 ovarian, with HCC-2998 colon and in the assay with HCT-15 colon was over 100 µM each time. Moreover, the TGI in the assay with MDA-MB-231 breast, in the assay on A549 NSCLC, in the assay with SNB-19 CNS and in the assay with MALME-3M melanoma was over 100 µM each time.
Consider `O=C(/C=C/c1cccc(Oc2ccccc2)c1)NCc1ccc(C(=O)NCCc2ccccc2)cc1`, for which the TGI in the assay on MDA-MB-435, with T-47D breast, with KM12 colon, in the assay with SK-OV-3 ovarian, in the assay on HCC-2998 colon and in the assay on HCT-15 colon was over 100 µM in each case. Moreover, the TGI in the assay with MDA-MB-231 breast, in the assay with A549 NSCLC, with SNB-19 CNS and with MALME-3M melanoma was over 100 µM each time.
As for `COC(=O)c1ccc(C)cc1CC1Cc2ccc(C)cc2C1=O` (stereo not given), the TGI in the assay on MDA-MB-435 turned out to be 4.03 µM; with T-47D breast, 63 µM; with KM12 colon it was 22.1 µM; in the assay with SK-OV-3 ovarian it was 59.5 µM; in the assay on HCC-2998 colon, 32.3 µM; with HCT-15 colon, 13.1 µM. Besides, the TGI with MDA-MB-231 breast was 77.4 µM; in the assay with A549 NSCLC, 93.5 µM; in the assay with SNB-19 CNS, over 100 µM; with MALME-3M melanoma it was 24.3 µM.
With `CCOC(=O)C(NC(=O)c1ccccc1)(N1CCN(c2cc3c(cc2F)c(=O)c(C(=O)O)cn3CC)CC1)C(F)(F)F` (stereo not given), the TGI with MDA-MB-435 is over 100 µM; with T-47D breast it was 88.6 µM; with KM12 colon, 81.3 µM; in the assay on SK-OV-3 ovarian, 79.5 µM; with HCC-2998 colon, over 100 µM; in the assay on HCT-15 colon, 64.9 µM. For the same compound, the TGI is 82.9 µM in the assay on MDA-MB-231 breast, over 100 µM in the assay with A549 NSCLC, over 100 µM in the assay with SNB-19 CNS and 90.1 µM in the assay on MALME-3M melanoma.
Consider `COC(=O)c1c(O)ccc2[nH]c3c(O)c4ccccc4cc3c12`, for which the TGI is 70.7 µM in the assay with MDA-MB-435; 36.6 µM in the assay with T-47D breast; 38.8 µM with KM12 colon; 90 µM in the assay with SK-OV-3 ovarian; 32.8 µM in the assay on HCC-2998 colon; 48.1 µM in the assay with HCT-15 colon. The TGI in the assay on MDA-MB-231 breast was over 100 µM; in the assay on A549 NSCLC, over 100 µM; in the assay on SNB-19 CNS, over 100 µM; with MALME-3M melanoma, 51.9 µM.
On to `COc1cc2c(c(O)c1OC)CC1CCC(=O)N1C2c1cccc2ccccc12` (stereo not given), for which the TGI was 40.4 µM in the assay with MDA-MB-435; 48.4 µM in the assay on T-47D breast; 55.4 µM with KM12 colon; over 100 µM in the assay on SK-OV-3 ovarian; 33.3 µM in the assay on HCC-2998 colon; 82.9 µM with HCT-15 colon. Moreover, the TGI in the assay on MDA-MB-231 breast is 33 µM; in the assay with A549 NSCLC, over 100 µM; in the assay with SNB-19 CNS, 45 µM; in the assay with MALME-3M melanoma, 44.5 µM.
As to `CC(C)=CCc1[nH]c2ccccc2c1C1=C(O)C(=O)C(c2c(CC=C(C)C)[nH]c3ccccc23)=C(O)C1=O`, the TGI in the assay with MDA-MB-435 turned out to be 2.39 µM; in the assay on T-47D breast it was 25 µM; with KM12 colon, 2.82 µM; in the assay on SK-OV-3 ovarian, 4.13 µM; in the assay on HCC-2998 colon it was 3.29 µM; in the assay with HCT-15 colon it was 3.48 µM. Besides, the TGI amounted to 3.38 µM in the assay on MDA-MB-231 breast, 11.2 µM with A549 NSCLC, 16.4 µM with SNB-19 CNS and 4.5 µM with MALME-3M melanoma.
Turning to `S=c1[nH]n2c(CCCCCCCCc3nnc4sc(=S)[nH]n34)nnc2s1`, the TGI with MDA-MB-435, in the assay with T-47D breast, in the assay with KM12 colon, in the assay on SK-OV-3 ovarian, with HCC-2998 colon and in the assay with HCT-15 colon was over 100 µM throughout. Besides, the TGI in the assay with MDA-MB-231 breast, with A549 NSCLC, with SNB-19 CNS and in the assay with MALME-3M melanoma was over 100 µM in each case.
With `CCOC(=O)C(Cc1ccc(OC(=O)OC(C)(C)C)cc1)NC(=O)OC(C)(C)C` (stereo not given), the TGI with MDA-MB-435 was over 100 µM; in the assay with T-47D breast, 70.7 µM; with KM12 colon, over 100 µM; in the assay on SK-OV-3 ovarian, over 100 µM; in the assay on HCC-2998 colon it was 76.6 µM; in the assay with HCT-15 colon, over 100 µM. Also, the TGI in the assay on MDA-MB-231 breast, with A549 NSCLC, in the assay on SNB-19 CNS and in the assay with MALME-3M melanoma was over 100 µM in each case.
For the compound `CCOC(=O)c1nc2ccc(C(F)(F)F)cc2nc1Nc1ccc(Cl)c(Cl)c1`, the TGI with MDA-MB-435, in the assay with T-47D breast, in the assay on KM12 colon, with SK-OV-3 ovarian, in the assay with HCC-2998 colon and with HCT-15 colon was over 100 µM each time. In addition, the TGI with MDA-MB-231 breast was over 100 µM; in the assay with A549 NSCLC, over 100 µM; in the assay on SNB-19 CNS, 95.7 µM; in the assay with MALME-3M melanoma, over 100 µM.
Regarding `CCCCCCCCCCCC[C@@H](O)[C@H]1CCC([C@H](O)CCCCC(=O)CCCCCCCC2=C[C@H](C)OC2=O)O1` (stereo not given in full), the TGI with MDA-MB-435, in the assay with T-47D breast, in the assay on KM12 colon, in the assay on SK-OV-3 ovarian, in the assay with HCC-2998 colon and with HCT-15 colon was over 50 µM each time. For the same compound, the TGI with MDA-MB-231 breast, with A549 NSCLC, in the assay on SNB-19 CNS and in the assay with MALME-3M melanoma was over 50 µM each time.
Regarding `CSc1ccn(C2CC(F)C(CO)O2)c(=O)n1` (stereo not given), the TGI in the assay on MDA-MB-435, with T-47D breast, with KM12 colon, with SK-OV-3 ovarian, in the assay on HCC-2998 colon and with HCT-15 colon was over 100 µM each time. The TGI with MDA-MB-231 breast, with A549 NSCLC, in the assay on SNB-19 CNS and in the assay on MALME-3M melanoma was over 100 µM each time.
In the case of `COc1cc(OC)cc(-c2n/c(=C\c3c(O)[nH]c4ccc(OC)cc34)cc3c2=Nc2ccccc2-3)c1`, the GI50 is 4.12 µM with MDA-MB-435; 24.6 µM in the assay with T-47D breast; 2.58 µM in the assay with KM12 colon; 25.8 µM in the assay with SK-OV-3 ovarian; 1.87 µM in the assay on HCC-2998 colon; 3.85 µM in the assay with HCT-15 colon. For the same compound, the GI50 is 1.56 µM in the assay with MDA-MB-231 breast, 11.6 µM in the assay with A549 NSCLC, 5.82 µM with SNB-19 CNS and 2.27 µM in the assay with MALME-3M melanoma. The TGI stood at 29.3 µM in the assay with MDA-MB-435; 75.8 µM in the assay on T-47D breast; 6.21 µM in the assay with KM12 colon; 53.3 µM in the assay on SK-OV-3 ovarian; 3.51 µM in the assay with HCC-2998 colon; 15 µM in the assay on HCT-15 colon. Also, the TGI was found to be 3.26 µM in the assay on MDA-MB-231 breast, 26.1 µM with A549 NSCLC, 27.7 µM in the assay on SNB-19 CNS and 5.42 µM with MALME-3M melanoma.
